These results are taken from ChEMBL document CHEMBL1201862, “PubChem BioAssay data set” (2004).

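Values below derive from 48-hour exposures of cells grown in 96-well plates, with endpoints linearly interpolated between the two concentrations bracketing the appropriate inhibition level. GI50 marks 50% less growth.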 The source made the active and inactive calls. Rule as the data show it: active = GI50 up to about 1.1 µM and inactive = higher. *1 amine or outer side, *2 acyl side, *3 side chain or, on linkers, in order; H or OH if unused. Where a SMILES comes first, the peptide text is derived from it. Bridges are numbered along the chain shown (N, C = ends). Roman numbers before positions name the chains, in order. [ ]: non-standard residue; d: D form. Actinocin(9to1) = Cc1c2oc3c(C)ccc(C(=O)[*:1])c3nc-2c(C(=O)[*:2])c(N)c1=O; NMeV = CN[CH](C(=O)O)C(C)C; Sar = CNCC(=O)O Bounds are passed on as bounds.

Holding throughout (test): NCI anticancer screen, dose series, 48 h
The subject of test [1] is MCF7.
Test [2] deals with Hs-578T.
The test system of test [3] is NCI-H460.
Test [4] deals with DU-145.
Test [5] has as its system SN12C.
Test [6] relates to PC-3.
For test [7], the system named is MDA-N.
Test [8] relates to LOX IMVI.
Test [9] deals with MDA-MB-231.
For test [10], the system named is SF-295.
The subject of test [11] is T47D.
The test system of test [12] is MDA-MB-435.
For test [13], the system named is CCRF-CEM.
Test [14] relates to TK-10.
In test [15] the test system is NCI/ADR-RES.
In test [16] the test system is BT-549.
Test [17] has as its system KM12.
Test [18] concerns COLO 205.
For test [19], the system named is HL-60.

As for `COc1nc2c(N3CCCC3)nc(N3CCNCC3)nc2nc1NCc1ccccc1`, the GI50 is 1.76 µM (inactive) in test [1]; 2.08 µM (inactive) in [2]; 1.95 µM (inactive) in [3]; 1.75 µM (inactive) in test [4]; 2.03 µM (inactive) in [5]; 2.28 µM (inactive) in test [6]. Besides, the GI50 is 1.21 µM (inactive) in [7]; 1.47 µM (inactive) in [8]; 1.63 µM (inactive) in test [9]; 1.74 µM (inactive) in test [10]; 1.41 µM (inactive) in test [11]; 1.39 µM (inactive) in test [12]. Moreover, the GI50 in test [13] is 1.58 µM (inactive); in [14], 1.76 µM (inactive); in [15], 4.17 µM (inactive); in test [16], 1.85 µM (inactive); in test [17], 1.61 µM (inactive); in test [18], 0.524 µM (active). Further, in [19], the GI50 is 1.68 µM (inactive).
As for `O=Cc1cc(O)ccc1Br`, the GI50 in test [1] was 4.41 µM (inactive); in test [2] it was 9.31 µM (inactive); in test [3], 19.7 µM (inactive); in test [4] it was 44.7 µM (inactive); in [5], 19.8 µM (inactive); in test [6], 13.2 µM (inactive). Further, the GI50 in [7] was 3.1 µM (inactive); in test [8], 5.46 µM (inactive); in test [9], 36.1 µM (inactive); in test [10] it was 7 µM (inactive); in test [11], 42.1 µM (inactive); in test [12], 2.5 µM (inactive). Moreover, the GI50 in test [13] is 3.08 µM (inactive); in [14], 11.3 µM (inactive); in test [15], 12.1 µM (inactive); in test [16], 11.6 µM (inactive); in [17], 23.5 µM (inactive); in test [18] it was 41.7 µM (inactive). In test [19], the GI50 is 1.88 µM (inactive).
As for `Cn1c(=O)c2[nH]c(/N=N/N3CCN(CCO)CC3)nc2n(C)c1=O`, the GI50 in test [1], in test [2], in test [3], in test [4], in test [5] and in test [6] was > 100 µM (inactive) throughout. For the same molecule, the GI50 in test [7], in test [8], in test [9], in test [10], in [11] and in test [12] was > 100 µM (inactive) in each case. Further, the GI50 in [13] was > 100 µM (inactive); in test [14], > 100 µM (inactive); in test [15] it was 67 µM (inactive); in test [16], 18.8 µM (inactive); in test [17], > 100 µM (inactive); in test [18], > 100 µM (inactive). In test [19], the GI50 is > 100 µM (inactive).
As for `COc1ccc2c(Cc3c4ccccc4cc4ccccc34)cncc2c1O`, the GI50 in test [1] is 0.638 µM (active); in test [2] it was 1.58 µM (inactive); in test [3], 1.45 µM (inactive); in [4], 2.77 µM (inactive); in test [5] it was 5.01 µM (inactive); in test [6], 5.14 µM (inactive). The GI50 is 0.404 µM (active) in test [7]; 0.394 µM (active) in test [8]; 2.51 µM (inactive) in [9]; 1.55 µM (inactive) in test [10]; 17.2 µM (inactive) in test [11]; 0.239 µM (active) in test [12]. In addition, the GI50 was 0.36 µM (active) in [13]; 3.94 µM (inactive) in test [14]; 0.67 µM (active) in [15]; 5.69 µM (inactive) in [16]; 1.93 µM (inactive) in test [17]; 17.7 µM (inactive) in [18]. For the same molecule, the GI50 in test [19] was 1.87 µM (inactive).
With `Cc1c2oc3c(C)ccc(C(=O)NC4C(=O)NC(C(C)O)C(=O)N5CCCC5C(=O)N(C)CC(=O)N(C)C(C(C)C)C(=O)OC4C)c3nc-2c(C(=O)NC2C(=O)NC(C(C)O)C(=O)N3CCCC3C(=O)N(C)CC(=O)N(C)C(C(C)C)C(=O)OC2C)c(N)c1=O` (stereo not given) (I: TTP[Sar][NMeV] / II: TTP[Sar][NMeV]; ester I:1-I:C, II:1-II:C; linker I:N-II:N via Actinocin(9to1); configuration not given here), the GI50 was 0.0507 µM (active) in test [1]; 1.41 µM (inactive) in test [2]; 0.0818 µM (active) in test [3]; 1.32 µM (inactive) in test [4]; 0.207 µM (active) in test [5]; 1.06 µM (active) in test [6]. Also, the GI50 is 1.08 µM (active) in test [7]; 0.0493 µM (active) in test [8]; 3.76 µM (inactive) in test [9]; 0.453 µM (active) in test [10]; 0.184 µM (active) in test [11]; 0.413 µM (active) in test [12]. For the same molecule, the GI50 was 0.119 µM (active) in [13]; 0.643 µM (active) in test [14]; > 100 µM (inactive) in [15]; 0.0155 µM (active) in test [16]; 0.185 µM (active) in test [17]; 0.0528 µM (active) in test [18]. In test [19], the GI50 is 0.437 µM (active).
For the molecule `COc1ccc2nc3cc(Cl)ccc3c(NCCCCCC(=O)NC(COc3ccc4ccc5cccnc5c4n3)COc3ccc4ccc5cccnc5c4n3)c2c1`, the GI50 in test [1] was 2.23 µM (inactive); in test [2] it was 29 µM (inactive); in test [3] it was 2.85 µM (inactive); in test [4], 11.5 µM (inactive); in [5] it was 17.8 µM (inactive); in test [6] it was 15.2 µM (inactive). For the same molecule, the GI50 was 23 µM (inactive) in test [7]; 21.4 µM (inactive) in [8]; 19.4 µM (inactive) in test [9]; 29.8 µM (inactive) in test [10]; 20.1 µM (inactive) in [11]; 38.6 µM (inactive) in test [12]. Further, the GI50 in test [13] was 2.28 µM (inactive); in test [14] it was 18.1 µM (inactive); in [15], 26.9 µM (inactive); in test [16], 1.67 µM (inactive); in test [17], 27.9 µM (inactive); in test [18] it was 18.3 µM (inactive). Further, the GI50 in test [19] is 9.64 µM (inactive).
For `Nn1c(S)nnc1COc1cccc(OCc2nnc(S)n2N)c1`, the GI50 in [1] is 75 µM (inactive); in test [2], > 100 µM (inactive); in [3], 29.7 µM (inactive); in test [4], > 100 µM (inactive); in test [5] it was > 100 µM (inactive); in test [6], > 100 µM (inactive). For the same molecule, the GI50 in test [7] is > 100 µM (inactive); in [8] it was 32.4 µM (inactive); in [9] it was > 100 µM (inactive); in test [10], > 100 µM (inactive); in test [11] it was > 100 µM (inactive); in test [12] it was > 100 µM (inactive). Also, the GI50 in test [13] is 30.7 µM (inactive); in test [14], > 100 µM (inactive); in test [15], > 100 µM (inactive); in test [16], > 100 µM (inactive); in test [17] it was > 100 µM (inactive); in test [18] it was 98.4 µM (inactive). Moreover, the GI50 in test [19] is 86.3 µM (inactive).
On to `CSC1(C)C(=O)Nc2c(OCc3ccccc3)cc([N+](=O)[O-])cc21` (stereo not given), for which the GI50 in test [1] was 14 µM (inactive); in test [2], 17.7 µM (inactive); in [3], > 100 µM (inactive); in [4], > 100 µM (inactive); in [5], 13.4 µM (inactive); in test [6], 27 µM (inactive). Besides, the GI50 in test [7] is 30.1 µM (inactive); in test [8], 53 µM (inactive); in test [9], 26.7 µM (inactive); in test [10] it was 57.1 µM (inactive); in [11] it was 19.3 µM (inactive); in test [12], 78.3 µM (inactive). Also, the GI50 in test [13] is 84.3 µM (inactive); in [14] it was > 100 µM (inactive); in [15] it was 28.4 µM (inactive); in test [16] it was 51.1 µM (inactive); in test [17] it was 96.8 µM (inactive); in test [18] it was > 100 µM (inactive). The GI50 in test [19] is 40.7 µM (inactive).
With `Cc1ccc(C2(O)c3ccccc3C(=O)N(C)C2(O)c2ccc(C)cc2)cc1` (stereo not given), the GI50 was 38.9 µM (inactive) in test [1]; 22.6 µM (inactive) in test [2]; 22.6 µM (inactive) in test [3]; > 100 µM (inactive) in test [4]; 58.3 µM (inactive) in test [5]; > 100 µM (inactive) in test [6]. Besides, the GI50 in test [7] was > 100 µM (inactive); in test [8], 25.5 µM (inactive); in test [9], 28.2 µM (inactive); in test [10], 38.1 µM (inactive); in test [11], > 100 µM (inactive); in test [12], > 100 µM (inactive). Moreover, the GI50 in test [13] was 15.4 µM (inactive); in test [14] it was > 100 µM (inactive); in test [15], 39.4 µM (inactive); in test [16] it was 91.8 µM (inactive); in test [17], 29.9 µM (inactive); in test [18], > 100 µM (inactive). Moreover, the GI50 in [19] was 16.1 µM (inactive).
For the molecule `CC(C)CNc1nc2ncnc(N)c2[nH]1`, the GI50 in test [1], in test [2], in test [3], in [4], in test [5] and in test [6] was > 100 µM (inactive) throughout. In addition, the GI50 in [7], in test [8], in test [9], in [10], in test [11] and in test [12] was > 100 µM (inactive) in each case. Further, the GI50 in test [13], in [14], in [15], in [16], in test [17] and in test [18] was > 100 µM (inactive) throughout. The GI50 in test [19] is < 0.01 µM (active).
